Common to all, as to format: in vivo, mouse
One data set relates to parvalbumin (PV). Put plainly: PV-immunohistochemistry in mPFC after maternal glyphosate exposure. The settings on record: juvenile offspring of maternal glyphosate exposure vs water treated group. Here is the method: PV-immunohistochemistry. Immunohistochemistry of PV was performed as reported previously (7,13,16,17). Mice were anesthetized with 5% isoflurane and sodium pentobarbital (50 mg/kg), and perfused transcardially with 10 mL of saline, followed by 30 mL of ice-cold 4% paraformaldehyde in 0.1M phosphate buffer (pH 7.4). Brains were removed from the skulls and post fixed overnight at 4° C. in the same fixative. For the immunohistochemical analysis, 50 μm-thick serial, coronal sections of brain tissue were cut in ice-cold 0.01M phosphate buffered saline (pH 7.4) using a vibrating blade microtome (VT1000s, Leica Microsystems, Tokyo, Japan). Mounted on gelatinized slides brain sections were washed by PBS for three times and then blocked in PBS containing 0.3% Triton X-100 (PBST) and 3% normal serum for 1 h at room temperature. The samples were then incubated for 24 h at 4° C. with […] polyclonal anti-parvalbumin (PV) antibody (1:100, abcam, ab11427) in PBST with 1% normal serum. After that the sections were washed three times in PBS and then incubated for 2 h in room temperature with Alexa Fluor 488 Polyclonal Antibody (1:1000, Invitrogen, A11094). […] The PV-immunofluorescent-positive cells in the inflalimbic (IL) and prelimbic (PrL) regions (0.05 mm^2) of mPFC was analyzed using a fluorescence microscope with a CCD camera (Olympus IX70, Tokyo, Japan) and the SCION IMAGE software package. […]

The test system of another data set is pregnant ddY mice. The experiment in a line: General data (mortality, body weight, behavioral abnormality) of mothers and offspring after maternal glyphosate exposure. The settings on record: for Behavioral abnormality: juvenile offspring. The procedure:
Treatment of glyphosate in drinking water into pregnant mice. Previous studies used drinking water containing 0.38% glyphosate (1% Roundup®) during pregnancy and lactation, equivalent to 50 mg/kg/day of glyphosate (1,2). This does correspond with 1/20 of the glyphosate no-observed-adverse-effect level, as described previously (3). Therefore, water or glyphosate [or 0.1, 0.25, 0.50, 0.75, 1.0% Roundup®, Nissan Chemical Corporation, Tokyo, Japan] were given to the pregnant mice from E5 to P21 (weaning). The male offspring were separated from their mothers at weaning (P21), and mice were caged each three-five in the groups in clear polycarbonate cage (22.5×33.8×14.0 cm). Mice were housed under controlled temperatures and 12 hour light/dark cycles (lights on between 07:00-19:00 h), with ad libitum food and water.
Treatment of TPPU. TPPU was dissolved in polyethylene glycol 400 (PEG 400: Tokyo Chemical Industry Co., Ltd, Tokyo, Japan). TPPU (3 mg/kg/day) or vehicle (5 ml/kg, PEG 400) was administered orally in the pregnant mice from E5 to P21. Behavioral tests of offspring were performed during juvenile stage (P28-P35) after maternal glyphosate exposure (FIG. 1A).

A further data set has as its system GAD67. Put plainly: GAD67 immunohistochemistry in mPFC, offspring after MIA. The settings on record: adult offspring of poly(I:C)-treated mice vs saline-treated group. Here is the method:
Immunohistochemistry. Immunohistochemistry of PV was performed as reported previously (37,39,59,60). Mice were anesthetized with 5% isoflurane and sodium pentobarbital (50 mg/kg), and perfused transcardially with 10 mL of physiological saline, followed by 40 mL of ice-cold 4% paraformaldehyde in 0.1M phosphate buffer (pH 7.4). Brains were removed from the skulls and post fixed overnight at 4° C. in the same fixative. For the immunohistochemical analysis, 50 μm-thick serial, coronal sections of brain tissue were cut in ice-cold 0.01M phosphate buffered saline (pH 7.5) using a vibrating blade microtome (VT1000s, Leica Microsystems, Tokyo, Japan). Free-floating sections were treated with 0.3% H2O2 in 50 mM Tris-HCl saline (TBS) for 30 min and were blocked in TBS containing 0.2% Triton X-100 (TBST) and 1.5% normal serum for 1 h at room temperature. […] The sections were imaged, and the staining intensity of PV (or GADO immunoreactivity in the inflalimbic (IL) and prelimbic (PrL) regions of mPFC was analyzed using a light micro-scope equipped with a CCD camera (Olympus IX70, Tokyo, Japan) and the SCION IMAGE software package. Images of sections within mPFC region were captured using a 100× objective with a Keyence BZ-X710 microscope (Keyence Corporation, Osaka, Japan).

[1] abbreviates: 0.038% glyphosate (0.1% Roundup).
Setting [2] is: 0.095% glyphosate (0.25% Roundup).
The mark [3] stands for this setting: 0.19% glyphosate (0.50% Roundup).
The mark [4] stands for this setting: 0.285% glyphosate (0.75% Roundup).

Experimental findings from patent US12357598B2, “Treatment of neurodevelopmental disorders” (THE REGENTS OF THE UNIVERSITY OF CALIFORNIA, priority 2018, dated 2025) are described below.

With `O=C(O)CNCP(=O)(O)O` [glyphosate], in the data set with parvalbumin (PV), the “PV-immunoreactivity in the prelimbic (PrL) of medial PFC” value is “significantly lower”. For the same molecule, the “Alive number of offspring on P21” value in the data set on pregnant ddY mice (setting [1]) came out at 33; in the data set with pregnant ddY mice (setting [2]) it was 24; with pregnant ddY mice (setting [3]), 2; with pregnant ddY mice (setting [4]), 4; in the data set on pregnant ddY mice (0.38% glyphosate (1% Roundup)) it was 0. Besides, the Maternal mortality is 0% with pregnant ddY mice (setting [1]); 0% in the data set on pregnant ddY mice (setting [2]); 20% with pregnant ddY mice (setting [3]); 25% in the data set with pregnant ddY mice (setting [4]); 100% in the data set on pregnant ddY mice (0.38% glyphosate (1% Roundup) in drinking water from E5). Moreover, the “Number of offspring born” value in the data set with pregnant ddY mice (setting [1]) was found to be 33; in the data set on pregnant ddY mice (setting [2]) it was 30; with pregnant ddY mice (setting [3]), 43; with pregnant ddY mice (setting [4]), 32; in the data set with pregnant ddY mice (0.38% glyphosate (1% Roundup)), 0. The Offspring mortality in the data set on pregnant ddY mice (setting [1]) is 0%; in the data set on pregnant ddY mice (setting [2]), 20%; in the data set on pregnant ddY mice (setting [3]), 95.3%; in the data set on pregnant ddY mice (setting [4]), 87.5%. The “Alive number of mothers on P0” value in the data set on pregnant ddY mice (0.038% glyphosate (0.1% Roundup), 3 mothers used) is 3; in the data set on pregnant ddY mice (0.095% glyphosate (0.25% Roundup), 3 mothers used) it was 3; in the data set with pregnant ddY mice (0.19% glyphosate (0.50% Roundup), 5 mothers used) it was 4; with pregnant ddY mice (0.285% glyphosate (0.75% Roundup), 4 mothers used) it was 3; in the data set with pregnant ddY mice (0.38% glyphosate (1% Roundup) in drinking water from E5, 4 mothers used), 0. Further, the “body weight of mothers at E17” value in the data set on pregnant ddY mice (0.095% glyphosate vs water exposure mothers) is listed as “significantly lower”. The entries for the “body weight of pregnant mice” value in the data set with pregnant ddY mice (glyphosate 0.038%-0.285%) and in the data set with pregnant ddY mice (high concentration (0.38%) glyphosate) were “increased gradually” and “not increased”, respectively. Further, the Behavioral abnormality result is “did not show any behavioral abnormality” with pregnant ddY mice (0.038% glyphosate (0.1% Roundup), locomotion, three chamber test, forced swimming test) and “observed” in the data set with pregnant ddY mice (setting [2]).

In the case of “polyriboinosinic-polyribocytidilic acid [Poly(I:C)]”, the “GAD67-IR in the PrL and IL of mPFC” value in the data set with GAD67 is listed as “significantly lower”.
